Source: PMC2263054, “Functional evolution of the vitamin D and pregnane X receptors” (BMC Evolutionary Biology, 2007)

Key:
[1] = tested on: testosterone 6β-hydroxylation activity (CYP3A-like activity); assay: in vitro
Experimental: (§1) The cells are cultured at 26°C in ambient atmosphere.
(§2) 100 μL of sample, calibration standard, or quality material standard were pipetted into separate microcentrifuge tubes and mixed with 100 μL of methanol. Samples were vortexed and centrifuged at 13,000 rpm for 4 min. The supernatant was then injected into the HPLC.
(§3) The flow rate was 1.2 mL/min and total run time was 25 min.

Xenopus laevis VDR = target: T1, Xenopus laevis VDR (Xenopus laevis, UniProt O13124); assay: luciferase reporter transactivation assay in HepG2-NTCP cells, GAL4/xlVDR LBD chimera with tk-UAS-Luc; format: cell-based
T1 sequence (O13124 90-422): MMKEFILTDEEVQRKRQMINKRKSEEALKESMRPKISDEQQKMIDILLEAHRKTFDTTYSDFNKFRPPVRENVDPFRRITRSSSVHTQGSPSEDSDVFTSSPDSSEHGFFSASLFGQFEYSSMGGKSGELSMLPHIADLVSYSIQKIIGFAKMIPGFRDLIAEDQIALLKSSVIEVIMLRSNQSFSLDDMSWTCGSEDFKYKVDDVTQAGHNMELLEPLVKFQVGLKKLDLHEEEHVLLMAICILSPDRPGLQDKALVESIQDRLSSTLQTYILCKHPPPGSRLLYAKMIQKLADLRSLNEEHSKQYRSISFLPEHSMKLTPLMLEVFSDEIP

[2] = tested on: testosterone 6β-hydroxylation; assay: testosterone hydroxylation (HPLC) in sea lamprey primary hepatocytes; format: cell-based; conditions: concentration ranges per compound
Experimental: as §2, §3

Sea lamprey VDR = target: T2, Sea lamprey VDR (Petromyzon marinus, UniProt Q7ZZY9); format: cell-based
T2 sequence (Q7ZZY9 92-406): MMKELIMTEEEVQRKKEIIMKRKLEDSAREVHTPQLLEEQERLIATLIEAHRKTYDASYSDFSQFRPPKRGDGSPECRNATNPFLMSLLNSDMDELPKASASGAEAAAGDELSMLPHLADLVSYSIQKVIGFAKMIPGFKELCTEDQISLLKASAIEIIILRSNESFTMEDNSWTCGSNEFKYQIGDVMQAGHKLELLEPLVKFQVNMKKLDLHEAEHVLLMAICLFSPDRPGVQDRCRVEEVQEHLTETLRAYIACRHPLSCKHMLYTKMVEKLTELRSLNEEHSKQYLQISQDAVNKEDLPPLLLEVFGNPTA

Zebrafish VDR = target: T3, Zebrafish VDR (Danio rerio, UniProt Q9PTN2); assay: luciferase reporter transactivation assay in HepG2-NTCP cells, GAL4/zfVDR LBD chimera with tk-UAS-Luc; format: cell-based
T3 sequence (Q9PTN2 121-453): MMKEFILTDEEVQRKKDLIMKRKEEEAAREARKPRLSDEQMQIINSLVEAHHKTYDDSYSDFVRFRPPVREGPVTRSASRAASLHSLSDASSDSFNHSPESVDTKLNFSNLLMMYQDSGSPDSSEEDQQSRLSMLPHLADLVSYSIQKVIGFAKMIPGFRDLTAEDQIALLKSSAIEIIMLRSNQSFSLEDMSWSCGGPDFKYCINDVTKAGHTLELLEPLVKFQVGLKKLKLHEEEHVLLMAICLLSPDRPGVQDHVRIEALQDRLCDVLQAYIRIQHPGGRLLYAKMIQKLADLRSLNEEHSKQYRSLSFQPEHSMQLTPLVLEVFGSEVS

EROD activity = assay: EROD assay in sea lamprey primary hepatocytes; conditions: 24–48 hr exposure
[3] = tested on: 6β- and 12α-hydroxylation of testosterone; assay: testosterone hydroxylation (HPLC) in African clawed frog primary hepatocytes; format: cell-based, Xenopus laevis; conditions: relative to vehicle control
Experimental: Xenopus laevis primary hepatocytes were cultured by a protocol adapted from a published report. Frogs are sacrificed with MS-222, rinsed with 70% ethanol, and the liver lobes perfused via the heart, initially with 375 mL Barth (88 mM NaCl, 1 mM K2SO4, and 10 mM HEPES-NaOH, pH 7.4) containing 0.82 mM MgCl2 and 0.1 mg/mL heparin, and then with 25 mL Barth containing 2.22 mM Ca(NO3)2, 2.74 mM CaCl2, and 200 U/mL type I collagenase (Worthington Chemicals, Lakewood, NJ). Livers are minced to fine pieces in 12.5 mL Barth-collagenase solution and then incubated for 10 min at room temperature, periodically disaggregating the liver pieces with a Pasteur pipette. The liver cells are then placed on a shaking incubator for 5 min at room temperature, followed by another 10 min of periodic pipetting to complete disaggregation. Cells are then filtered through a 130 μm Nitex nylon mesh (Fisher Scientific), following by spinning at 500 g for 5 min at 4°C. The supernatant is then aspirated and diluted to 50 mL with Barth plus MgCl2 and then allowed to settle while cooled in ice for 30 min. The supernatant is removed, and the cellular pellet is resuspended and subjected to one more round of nylon mesh filtration, dilution in Barth plus MgCl2, and settling while cooled in ice. The supernatant is removed and the remaining cells are washed once with Barth plus MgCl2 and then centrifuged at 500 g for 5 min at 4°C. The cells are then resuspended in 0.6 × Coon's Modified Ham's F-12 medium (Invitrogen) supplemented with 0.1 × Barth (88 mM NaCl, 1 mM K2SO4, 10 mM HEPES), 200 U/mL penicillin G, 100 μg/mL streptomycin sulfate, 2 mM glutamine, 0.2% glucose, and 10 μg/mL bovine insulin (Calbiochem), with the final pH adjusted to 7.5. […] Cells are cultured at 20°C in ambient atmosphere.
Testosterone metabolites were identified and quantitated by HPLC. […] The supernatant was then injected into the HPLC.

Human VDR = target: T4, Human VDR (Homo sapiens, UniProt P11473); assay: luciferase reporter transactivation assay in HepG2-NTCP cells, full-length hVDR with CYP3A4-PXRE-Luc; conditions: HepG2-NTCP cells, luciferase reporter; unit not given; also cells saying No effect
T4 sequence (P11473 1-427): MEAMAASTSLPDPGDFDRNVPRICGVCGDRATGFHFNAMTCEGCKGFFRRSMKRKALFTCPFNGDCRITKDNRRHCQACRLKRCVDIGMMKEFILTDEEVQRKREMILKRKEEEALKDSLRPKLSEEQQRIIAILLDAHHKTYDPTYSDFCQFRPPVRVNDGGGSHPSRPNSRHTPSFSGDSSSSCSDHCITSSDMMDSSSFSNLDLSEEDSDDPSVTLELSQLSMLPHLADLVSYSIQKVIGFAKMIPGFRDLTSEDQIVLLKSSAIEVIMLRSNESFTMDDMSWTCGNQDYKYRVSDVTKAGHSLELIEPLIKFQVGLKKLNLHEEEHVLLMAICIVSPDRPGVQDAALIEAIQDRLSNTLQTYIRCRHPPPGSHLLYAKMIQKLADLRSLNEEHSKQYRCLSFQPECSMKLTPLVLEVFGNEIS

Ciona VDR/PXR = conditions: HepG2-NTCP cells, luciferase reporter; unit not given; also cells saying No effect
Mouse VDR = target: T5, Mouse VDR (Mus musculus, UniProt P48281); assay: luciferase reporter transactivation assay in HepG2-NTCP cells, full-length mVDR with CYP3A4-PXRE-Luc; conditions: HepG2-NTCP cells, luciferase reporter; unit not given; also cells saying No effect
T5 sequence (P48281 1-422): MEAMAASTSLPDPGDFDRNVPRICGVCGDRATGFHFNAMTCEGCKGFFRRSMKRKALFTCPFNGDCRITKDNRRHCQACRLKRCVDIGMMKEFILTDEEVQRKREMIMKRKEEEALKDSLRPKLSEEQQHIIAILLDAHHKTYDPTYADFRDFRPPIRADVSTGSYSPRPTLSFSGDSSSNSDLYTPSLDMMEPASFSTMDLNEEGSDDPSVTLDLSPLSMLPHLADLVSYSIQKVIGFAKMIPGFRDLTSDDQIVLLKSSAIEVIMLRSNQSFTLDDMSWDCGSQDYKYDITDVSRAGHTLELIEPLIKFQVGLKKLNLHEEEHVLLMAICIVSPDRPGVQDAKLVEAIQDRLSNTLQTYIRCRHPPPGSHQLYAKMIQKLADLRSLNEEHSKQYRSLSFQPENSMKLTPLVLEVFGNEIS

[4] = tested on: ethoxyresorufin O-deethylase (EROD) activity (CYP1A-like activity); assay: EROD assay in zebrafish primary hepatocytes; conditions: zebrafish primary hepatocytes; DIM at concentrations of 2 μM and greater
Experimental: as §1

[5] = screening for activators, at least three concentrations of each drug
[6] = HepG2-NTCP cells, luciferase reporter, unit not given, also cells saying No effect

## C[C@@]12CCC[C@H]1[C@@H]1CC[C@H]3C[C@H](O)CC[C@]3(C)[C@H]1CC2 [androstanol, 5α-androstan-3α-ol]
[1]; zebrafish
  EC50: 20 ± 2.7 µM
[1]; zebrafish primary hepatocytes, 48-hour exposure
  maximal rate of testosterone 6β-hydroxylation: 717 pmol/min/mg protein
Xenopus laevis VDR; [5]
  Effect on Xenopus laevis VDR: No effect
[2]
  effect on testosterone 6β-hydroxylation: None of these compounds produced significant increases in testosterone 6β-hydroxylation
Sea lamprey VDR; [5]
  Effect on sea lamprey VDR: No effect
Zebrafish VDR; [5]
  Effect on zebrafish VDR: No effect
EROD activity
  effect on EROD activity: did not alter EROD activity

## C[C@@H]1C[C@H]2[C@@H]3CCC4=CC(=O)C=C[C@]4(C)[C@@]3(F)[C@@H](O)C[C@]2(C)[C@@]1(O)C(=O)CO [Dexamethasone]
[3]
  effect on 6β- and 12α-hydroxylation of testosterone: neither activity was substantially increased relative to vehicle control
[2]
  effect on testosterone 6β-hydroxylation: None of these compounds produced significant increases in testosterone 6β-hydroxylation

## CCOC(=O)c1cccc(N)c1 [3-aminoethylbenzoate]
[3]
  effect on 6β- and 12α-hydroxylation of testosterone: neither activity was substantially increased relative to vehicle control

## CC(CCCOS(=O)(=O)O)[C@H]1CCC2C3C(C[C@H](O)[C@@]21C)[C@@]1(C)CC[C@@H](O)C[C@@H]1C[C@H]3O (stereo partly drawn) [5α-Petromyzonol 24-sulfate]
Human VDR
  Human VDR EC50 ± SD: No effect
Xenopus laevis VDR; [6]
  Xenopus VDR EC50 ± SD: No effect
[2]
  effect on testosterone 6β-hydroxylation: None of these compounds produced significant increases in testosterone 6β-hydroxylation
Sea lamprey VDR; [6]
  Sea lamprey VDR EC50 ± SD: No effect
Zebrafish VDR; [6]
  Zebrafish VDR EC50 ± SD: No effect
EROD activity
  effect on EROD activity: did not alter EROD activity
Ciona VDR/PXR
  Ciona VDR/PXR EC50 ± SD: No effect
Mouse VDR
  Mouse VDR EC50 ± SD: No effect

## C=C1/C(=C\C=C2/CCC[C@]3(C)[C@@H]([C@H](C)CCCC(C)(C)O)CC[C@@H]23)C[C@@H](O)C[C@@H]1O [1,25-(OH)2-Vitamin D3, 1α,25-(OH)2-vitamin D3]
[3]
  effect on 6β- and 12α-hydroxylation of testosterone: neither activity was substantially increased relative to vehicle control
[1]; zebrafish primary hepatocytes, calcitriol 1–500 nM
  effect on 6β-hydroxylation of testosterone: did not increase 6β-hydroxylation of testosterone
[2]
  effect on testosterone 6β-hydroxylation: None of these compounds produced significant increases in testosterone 6β-hydroxylation
EROD activity
  effect on EROD activity: did not alter EROD activity
[4]
  effect on EROD activity: found not to affect EROD activity
